From patent publication US12590087B2, “Inhibiting USP36” (Valo Health, Inc., priority 2019, dated 2026)
pIC50: −log10 of the molar value.

Biological target: T1, human USP36 (81-461) (Homo sapiens, UniProt Q9P275)
T1 sequence (Q9P275 81-461): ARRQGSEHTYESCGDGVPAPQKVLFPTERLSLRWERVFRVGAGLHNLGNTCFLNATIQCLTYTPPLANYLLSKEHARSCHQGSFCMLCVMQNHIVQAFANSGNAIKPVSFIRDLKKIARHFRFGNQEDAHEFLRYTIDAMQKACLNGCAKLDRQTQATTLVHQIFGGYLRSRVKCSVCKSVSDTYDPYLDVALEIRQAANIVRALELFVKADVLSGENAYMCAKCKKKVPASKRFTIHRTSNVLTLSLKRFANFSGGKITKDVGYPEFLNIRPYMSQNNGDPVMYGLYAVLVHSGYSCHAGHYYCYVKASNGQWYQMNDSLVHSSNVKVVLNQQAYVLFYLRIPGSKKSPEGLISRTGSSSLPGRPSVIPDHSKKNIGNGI
Assay: USP36 inhibition biochemical assay
Details: read-out: USP 36 IC50; 2 nM human USP36 (81-461), 25 nM Ub-Rh110MP substrate, 30 minutes preincubation with compound, fluorescence rate over 10 minutes
Procedure: Test compounds were serially diluted in DMSO (Sigma, G7516) to obtain 10-point, 3-fold series. […] Enzyme and substrate concentrations and incubation times were optimized for the maximal signal-to-background while maintaining linear initial velocity conditions at a fixed substrate concentration below Km.
Rates were calculated by: rate=((final FLU−initial FLU)/600 seconds) where final FLU=fluorescence at time 10 minutes, initial FLU=fluorescence at time 0 minutes and 600=duration of reaction in seconds.
Data were reported as percent inhibition compared with control wells based on the following equation: % inh=100*((rate−AveLow)/(AveHigh−AveLow)) where rate=measured rate of fluorescence generated during assay, AveLow=average rate of no enzyme control (n=32), and AveHigh=average rate of DMSO control (n=32).
Data were fitted using the Levenburg Marquardt algorithm.

## O=C(Nc1snnc1C(=O)Nc1ccc(N2CCCC2)cc1)c1cncc(C(F)(F)F)c1 [Compound 1, N-(4-(pyrrolidin-1-yl)phenyl)-5-(5-(trifluoromethyl)nicotinamido)-1,2,3-thiadiazole-4-carboxamide]
  pIC50: 6.70
